Measurements as given in US20120083473A1, “TREATMENT OF CONDITIONS BY TOLL-LIKE RECEPTOR MODULATORS” (priority 2010, published 2012).

Experiments:
NF-κB and STATs = NF-κB and STATs activity in TMX-tolerant macrophages (Western blot); format: cell-based, mice
Method: To investigate NF-κB and STATs activity upon TMX-mediated activation and tolerance, p65 and p50 NE-KB nuclear translocation and the levels of phospho-STATs proteins, respectively was analyzed. PEC treated 15 min with IFN-γ (500 U/mL) or with IL-10 (20 ng/ml) were used as positive controls for phospho-STAT1 and phospho-STAT3, respectively. In tolerance TMX 10 microM induces nuclear accumulation of p50 NF-kappaB and phosphorylation of STAT-3 (FIG. 6).
(§1) Cell Culture and treatments. Peritoneal exudate cells (PEC) were harvested from mice injected with 1 ml of 3% (w/v) thioglycollate medium (Difco, Detroit, Mich.) 4 days prior to isolation. PECs were incubated in RPMI 1640 medium, containing 10% fetal bovine serum, 2 mM glutamine and 100 U/ml of penicillin-streptomycin. The concentration for the different treatments were as follows: LPS (100 ng/ml) (Lipopolysaccharide from Salmonella Abortus Equi S-form, Alexis), CpG (1 μg/ml), Pam3CSK (2 μg/ml), Poly I:C (10 μg/ml), Loxorubine (100 μM), flagellin (100 ng/ml) IL-1β (20 ng/ml), TNF (20 ng/ml), IL-10 (20 ng/ml) (Peprotech), IFNγ (200 U/ml) (Peprotech). To induce TMX tolerance, cells were incubated in the presence of TMX (10 μM or 1 μM) for 20 hrs, washed and maintained in RPMI medium for 2 hrs and then re-challenged with TMX (10 μM) for 4 hrs. To induce TMX-tolerization (T/M) cells were treated with TMX for 20 hrs, washed and then maintained in medium for additional 6 hours, without TMX re-challenge. To induce M1-activation, cells were incubated in medium for 20 hrs, washed, left in medium for 2 hrs and finally stimulated with TMX (10 μM) for 4 hrs. Control cells (M/M) were cultured in medium for the entire period of the experiment. For gene expression analysis, total RNA was extracted from TMX treated and untreated cells with trizol (Invitrogen), according to the manufacturer's instructions. […]
Western blot analysis. For the NF-κB proteins, nuclear and cytosolic extracts were analyzed by SDS/PAGE (10% acrylamide) as described. […] Then, optical density was determined by “Quantity One” software.

[1] = tested on: murine peritoneal macrophages (PEC); assay: Secretion of M1 and M2 gene products by TMX-tolerant PEC (ELISA); format: cell-based, mice
Method: Based on the results of the gene expression analysis, performed by Real-Time PCR, selected gene products are validated at protein level, either by cytofluorimetry (surface molecules) or ELISA (secreted products).
The secretion of selected M1 and M2 gene products by TMX-tolerant murine peritoneal macrophages (PEC) was evaluated.
as §1, with “re-challenge.” for “re-challenge. To induce M1-activation, cells were incubated in medium for 20 hrs, washed, left in medium for 2 hrs and finally stimulated with TMX (10 μM) for 4 hrs. Control cells (M/M) were cultured in medium for the entire period of the experiment. For gene expression analysis, total RNA was extracted from TMX treated and untreated cells with trizol (Invitrogen), according to the manufacturer's instructions.”

human monocytes (Mo) = assay: Cross-tolerance toward TLR ligands in human monocytes (gene expression); format: cell-based
Method: To evaluate the effects of TMX on human cell activation, monocytes were isolated from buffy coats obtained from four different healthy donors. With respect to macrophage tolerance, cells were treated with Compound 2 (10 microM) up to 20 hours and then re-challenged with agonists/ligands of different TLRs (TLR2, TLR4, TLR5, TLR9, TLR7, etc. . . . ), including the TLR7 unconjugated ligand 1V209 (free pharmacophore) at a concentration of 10 microM.
Cell Culture and treatments. Monocytes (Mo) were obtained from buffycoats collected from healthy donors as previously described (Porta C et al, PNAS 2009). Cells were incubated in RPMI 1640 medium, containing 10% fetal bovine serum, 2 mM glutamine and 100 U/ml of penicillin-streptomycin. The concentrations for the different treatments were as follows: LPS (100 ng/ml) (Lipopolysaccharide from Salmonella Abortus Equi S-form, Alexis), CpG (1 microg/ml), Pam3CSK (2 microg/ml), Poly I:C (10 microg/ml), Loxorubine (100 microM), flagellin (100 ng/ml). To induce TMX tolerance, cells were incubated in the presence of TMX (10 microM) for 20 hrs, washed and maintained in RPMI medium for 2 hrs and then re-challenged with TMX (10 microM) for 4 hrs. To induce TMX-tolerization (T/M) cells were treated with TMX for 20 hrs, washed and then maintained in medium for additional 6 hours, without TMX re-challenge. To induce M1-activation cells were incubated in medium for 20 hrs, washed, left in medium for 2 hrs and finally stimulated with TMX (10 microM) for 4 hrs. Control cells (M/M) were cultured in medium for the entire period of the experiment. For gene expression analysis, total RNA was extracted from TMX treated and untreated cells with trizol (Invitrogen), according to the manufacturer's instructions. To analyze cytokines and chemokines production supernatants were collected 24 hrs after the second challenge with TMX.
Real-Time PCR. Total RNA was purified as previously described. Briefly, reverse transcription from 1 microgram of RNA was performed using a cDNA Archive kit (Applied Biosystem, NJ, USA). Real time PCR was performed using Power Syber Green PCR Master Mix (Applied Biosystem, NJ, USA) and detected by 7900HT Fast Real-Time System (Applied Biosystem, NJ, USA). Data were processed using the SDS2.2.2 software (Applied Biosystem, NJ, USA). Results were normalized to the expression of the housekeeping gene 8-actin and then expressed as folds of upregulation, with respect to the control cell population.

COCCOc1nc(N)c2nc(O)n(Cc3ccc(C(=O)NCCOCCOCCOCCOCCOCCOCCn4cc(CCC(=O)O)nn4)cc3)c2n1 [Compound 2]
activation of STAT-6 (NF-κB and STATs; any condition): No detectable activation
nuclear accumulation of p50 NF-kappaB (NF-κB and STATs; in tolerance, TMX 10 microM): induces
phosphorylation of STAT-3 (NF-κB and STATs; in tolerance, TMX 10 microM): induces
IL-1p and IL-6 in the supernatant of TMX-tolerant macrophages ([1]; ELISA): increased levels
state of tolerance: M1 and M2 cytokines production ([1]; only 10 microM TMX, ELISA of supernatants): low M1 and high M2 cytokines production
TNFalpha, IL-1 beta, IL-6 and IL-12 gene expression in response to TLR ligands (human monocytes (Mo); Mo tolerized by 20 hours pre-treatment, excluding Pam): inability to up-regulate
down-regulation of M1 marker IL-12p40 (human monocytes (Mo); TMX pretreatment, stimulation through TLRs other than TLR7): ~10 fold
M2 gene induction, CCL17 in particular (human monocytes (Mo); TMX treatment, TLR agonist re-challenge): strongly enhanced
Th2-recruiting chemokines genes (CCL17, CCL22) on TLR engagement (human monocytes (Mo); tolerized Mo, but not IL-10): trigger the expression
